Results as given in the NIST ThermoML archive (doi:10.1016/j.jct.2015.06.010).

Settings: 101.33 kPa, Liquid; for electrical conductivity: Alternating current cell with electrodes; for viscosity: Concentric cylinders viscometry; for mass density: Vibrating tube method

Cn1cc[n+](CCO)c1.O=S(=O)([N-]S(=O)(=O)C(F)(F)F)C(F)(F)F
Settings	electrical conductivity [S/m]	mass density [kg/m3]	viscosity [mPa·s]
283.15 K	0.132	1588.6	213.4
288.15 K	0.179	1583.6	153.7
293.15 K	0.237	1578.6	114.1
298.15 K	0.305	1573.7	86.89
303.15 K	0.387	1568.8	67.66
308.15 K	0.481	1563.9	53.88
313.15 K	0.589	1559.1	43.52
318.15 K	0.704	1554.2	35.85
323.15 K	0.83	1549.4	29.83
328.15 K	0.967	1544.6	25.2
333.15 K	1.11	1539.8	21.52
338.15 K	1.28	1535	18.46
343.15 K	1.45	1530.2	16.08
348.15 K	1.63	1525.5	14.06
353.15 K	1.81	1520.7	12.44

Cn1cc[n+](CC#N)c1.O=S(=O)([N-]S(=O)(=O)C(F)(F)F)C(F)(F)F
Settings	electrical conductivity [S/m]	mass density [kg/m3]	viscosity [mPa·s]
283.15 K	0.0283	1625.9	1140
288.15 K	0.0439	1620.5	708.6
293.15 K	0.0648	1615	463.4
298.15 K	0.0919	1609.7	315.5
303.15 K	0.129	1604.6	222.8
308.15 K	0.173	1599.6	162.4
313.15 K	0.225	1594.6	121.7
318.15 K	0.285	1589.8	93.56
323.15 K	0.36	1584.8	73.61
328.15 K	0.441	1579.9	58.99
333.15 K	0.536	1575.1	47.93
338.15 K	0.644	1570.2	39.7
343.15 K	0.756	1565.4	33.27
348.15 K	0.878	1560.6	28.11
353.15 K	1.01	1555.8	24.06
